# Reference: US12269800B2, “Delivery of therapeutic alkaloid compounds” (priority 2021, dated 2025)
# Where two headings read alike, the source gives them in different places.
# Assays:
# [1] = assay type: physicochemical
# Procedure: The hydrolysis kinetics was under a certain temperature and measured by LCMS at a certain time interval. The corresponding LCMS chromatograms were recorded and the conversions were calculated. The hydrolysis conditions and the data were summarized in below table. LCMS spectra were obtained using Agilent 1200G1956A or SHIMADZU LCMS-2020. Standard LCMS conditions were as follows (running time 1.55 minutes):
# Acidic condition: Mobile Phase A: 0.0375% TFA in water (v/v). Mobile Phase B: 0.01875% TFA in acetonitrile (v/v); Column: Kinetex EVO C18 30*2.1 mm, 5 μm.
# Basic condition: Mobile Phase A: 0.025% NH3—H2O in water (v/v). Mobile Phase B: Acetonitrile; Column: Kinetex EVO C18 2.1×30 mm, 5 μm.
# Conversion (%)=peak area 1/(peak area 1+peak area 2)*100%, peak area 1 is the integration of hydrolyzed product, peak area 2 is the integration of starting material.
# [2] = 5 µM
# [3] = Oral dose pharmacokinetic study in mice (10 mg/kg)
# Procedure: Total thirty-five male mice were used for each study with n=5 mice/time point. Animals were administered through oral route with solution formulation at 10 mg/kg dose. The formulation vehicle used was normal saline. […] Brain samples were collected from set of five mice at 0.083, 0.25, 0.50, 1.0, 1.5, 2.0 and 3.0 h.
# The plasma and brain concentration-time data of 001 was used for the pharmacokinetic analysis.
# [4] = Pharmacokinetics of 043 and 001 in mice after oral 043 (75 mg/kg); assay type: in vivo, male C57BL/6 mice
# Procedure: Total twelve male mice were used in this study. […] The formulation vehicle used was normal saline.
# The plasma and brain concentration-time data of 043 and 001 was used for the pharmacokinetic analysis.
# The extraction procedure for plasma/brain samples and the spiked plasma/brain calibration standards were identical:
# A 25 μL of study sample plasma/brain (dilution applied to some samples) or spiked plasma calibration standard was added to individual pre-labeled micro-centrifuge tubes followed by 100 μL of internal standard prepared in acetonitrile (Glipizide-500 ng/mL) was added except for blank, where 100 μL of acetonitrile was added. Samples were vortexed for 5 minutes. Samples were centrifuged for 10 minutes at a speed of 4000 rpm at 4° C. Following centrifugation, 100 μL of clear supernatant was transferred in 96 well plates and analyzed using LC-MS/MS.
# [5] = remark: listed apart in the source
# Procedure: General Procedure for intravenous pharmacokinetic study in mice: Male C57/BL6 mice were used to evaluate each compound, with n=3 mice/time point. Animals were administered through intravenous route with solution formulation at 2 mg/kg dose. […] Following blood collection, immediately, animals were sacrificed, and vena-cava was cut open and blood was drained. […] Brain samples were collected from set of three mice at each time point. […] Brain samples were homogenized using 2 volumes of ice-cold PBS (pH-7.4) of brain weight. […] Concentrations of compound (or compound and metabolite) in mouse plasma and brain samples were determined by fit for purpose LC-MS/MS method.
# [6] = Plasma Stability Assay of Example A3, mouse plasma; conditions: % of prodrug compound remaining, 37° C.
# [7] = Plasma Stability Assay of Example A3, human plasma; conditions: % of prodrug compound remaining, 37° C., 0.0 min
# [8] = Plasma Stability Assay of Example A4, human plasma; conditions: 37° C., % prodrug remaining
# Procedure: (§1) 50 uL aliquots of positive controls and test compounds spiked into rat or human plasma (n=2) were added to a pre-warmed plate (37° C.) and shaken at 50 rpm. At each respective time point, the reaction was stopped by adding 500 μL of acetonitrile containing internal standards (100 nM aprozolam, 200 nM caffeine, 100 nM tolbutamide). All samples were vortexed for 10 minutes, followed by centrifugation at 3,220 g for 30 minutes to precipitate proteins. 100 μL of the supernatant is transferred to a new plate. The supernatant will be diluted with ultrapure water according to the LC-MS signal response and peak shape.
# [9] = Plasma Stability Assay of Example A4, rat plasma; conditions: 37° C., % prodrug remaining
# Procedure: as §1
# [10] = Hydrolysis Assay of Example A2, Condition 1 (SGF with pepsin, pH 1.5, 37° C.); assay type: physicochemical
# [11] = assay type: physicochemical; conditions: DI water, 25° C., 0.5 mM
# [12] = fermentation, exposure to light, exposure to heat, aqueous medium; cited from earlier work
# [13] = pH = 2.0, 25° C., 0.5 mM, 0.01M HCl, 0-24 h
# [14] = 10 mg/kg po of the labelled compound in mice
# [15] = analyte as labelled, single oral administration of 043, 75 mg/kg
# [16] = brain, analyte as labelled, single oral administration of 043, 75 mg/kg
# [17] = plasma, analyte as labelled, single oral administration of 043, 75 mg/kg
compound,measurement,setting,value
"COc1ccc([C@]23CCN(C)[C@H]2CC2(CC3)OCCO2)cc1OC (racemic) [Compound 013, 3′a-(3,4-dimethoxyphenyl)-1′-methyl-spiro[1,3-dioxolane-2,6′-2,3,4,5,7,7a-hexahydroindole]]",Notes (stability in words),[1],Stable
same,conversion to mesembrine,"[1]; acidic pH 2.0, 5° C.",not at 5 °C
same,conversion to mesembrine,"[1]; acidic pH 2.0, 37 and 50° C.",converted to mesembrine
"COc1ccc([C@]23CCN(C)[C@H]2CC2(CC3)SCCS2)cc1OC (racemic) [Compound 014, (7′aS)-3′a-(3,4-dimethoxyphenyl)-1′-methyl-spiro[1,3-dithiolane-2,6′-2,3,4,5,7,7a-hexahydroindole]]",Notes (stability in words),[1]; [13],Stable
"COc1ccc([C@@]23CCC(=NNC(=O)Nc4ccc(C(=O)O)cc4)C[C@@H]2N(C)CC3)cc1OC (racemic) [Compound 259, 4-[[[(3aS,7aS)-3a-(3,4-dimethoxyphenyl)-1-methyl-2,3,4,5,7,7a-hexahydroindol-6-ylidene]amino]carbamoylamino]benzoic acid]",Mouse Plasma Prodrug (%),[2]; 0 min,100%
same,Mouse Plasma Prodrug (%),[2]; 15 min,86.2%
same,Mouse Plasma Prodrug (%),[2]; 30 min,81.0%
same,Mouse Plasma Prodrug (%),[2]; 60 min,67.6%
same,Mouse Plasma Prodrug (%),[2]; 120 min,38.7%
same,Mouse Plasma Prodrug (%),[2]; 240 min,19.8%
same,Human Plasma Prodrug (%),"0 min, 5 µM",100%
same,Human Plasma Prodrug (%),"15 min, 5 µM",>99%
same,Human Plasma Prodrug (%),"30 min, 5 µM",96.6%
same,Human Plasma Prodrug (%),"60 min, 5 µM",85.7%
same,Human Plasma Prodrug (%),"120 min, 5 µM",70.0%
same,Human Plasma Prodrug (%),"240 min, 5 µM",54.3%
"COc1ccc([C@@]23CCC(=O)C[C@@H]2N(C)CC3)cc1OC [Compound 001, mesembrine, reference compound]",Notes (stability in words),"[1]; PH = 7.4, 25° C., 0.5 mM, PBS (20 mM), 0-24 h",Stable
same,Notes (stability in words),"[1]; PH = 7.4, 40° C., 0.5 mM, PBS (20 mM), 0-24 h",Stable
same,hydrolysis,"[1]; pH 2.0 in 0.01 M HCl to pH 7.4 in 20 mM PBS, 25° C. to 40° C.",did not further hydrolyze
same,Notes (stability in words),[1]; [13],Stable
same,Notes (stability in words),"[1]; pH = 2.0, 40° C., 0.5 mM, 0.01M HCl, 0-24 h",Stable
same,001 quantifiable in brain up to,[3]; [14],60 min
same,001 quantifiable in plasma up to,[3]; [14],2 h
same,brain levels of 001,"[3]; at 90, 120, 180 min, 10 mg/kg po in mice",not detectable
same,plasma levels of 001,"[3]; at 180 min, 10 mg/kg po in mice",not detectable
same,bioavailability,"[3]; male, C57BL/6, mouse, plasma, po, 10 mg/kg",< 10%
same,brain concentrations quantifiable up to,[4]; [15],4 h
same,Kp,"[4]; male, C57BL/6, mouse, brain, analyte as labelled, single oral administration of 043, 75 mg/kg, read-out: brain exposure-Kp",2.55
same,Tmax,"[4]; male, C57BL/6, mouse, plasma, analyte as labelled, single oral administration of 043, 75 mg/kg, read-out: Tmax",30 min
same,001 quantifiable in brain up to,[5]; 2 mg/kg iv of the labelled compound in mice,60 min
same,plasma levels of 001,"[5]; at 60, 120, 180 min, 2 mg/kg iv in mice",not detectable
same,brain levels of 001,"[5]; at 120, 180 min, 2 mg/kg iv in mice",not detectable
same,Mouse Plasma Prodrug (%),[6]; 0.0 min,100.0%
same,Human Plasma Prodrug (%),,>99%
same,Human Plasma Prodrug (%),[7],100.0%
"COc1ccc([C@@]23CCC(OC(C)=O)=C[C@@H]2N(C)CC3)cc1OC [Compound 026, [(3aS,7aS)-3a-(3,4-dimethoxyphenyl)-1-methyl-3,4,5,7a-tetrahydro-2H-indol-6-yl] acetate]",Conversion (%),[1],0%
same,Notes (stability in words),[1],Stable;
same,Human Plasma Prodrug (%),[8]; time 0.0 min,100.0%
same,Human Plasma Prodrug (%),[8]; time 10 min,40.3%
same,Human Plasma Prodrug (%),[8]; time 30 min,23.5%
same,Human Plasma Prodrug (%),[8]; time 60 min,12.0%
same,Human Plasma Prodrug (%),[8]; time 120 min,3.4%
same,Human Plasma Prodrug (%),[8]; time 240 min,0.8%
same,Rat Plasma Prodrug (%),[9]; time 0.0 min,100.0%
same,Rat Plasma Prodrug (%),[9]; time 10 min,0.0%
same,Rat Plasma Prodrug (%),[9]; time 30 min,0.0%
same,Rat Plasma Prodrug (%),[9]; time 60 min,0.0%
same,Rat Plasma Prodrug (%),[9]; time 120 min,0.0%
same,Rat Plasma Prodrug (%),[9]; time 240 min,0.0%
same,Condition 1 Conversion (%),[10]; pH 1.5,0%
COc1ccc([C@]23CCN(C)[C@H]2CC2(CC3)OCCO2)cc1OC [Compound 043],conversion to 001 in vivo,[4]; 75 mg/kg po in mice,efficiently converts to 001 in vivo
same,brain concentrations quantifiable up to,[4]; [15],4 h
same,brain exposure-Kp,[4]; [15],< 1
same,AUClast,[4]; [16],1787.23 ng·h/mL
same,Cmax,[4]; [16],2684.81 ng/mL
same,Tmax,[4]; [16],30 min
same,AUClast,[4]; [17],2555.07 ng·h/mL
same,Cmax,[4]; [17],3392.53 ng/mL
same,Tmax,[4]; [17],30 min
COc1ccc([C@@]23CCC(OC(=O)c4ccc(C(F)(F)F)cc4)=C[C@@H]2N(C)CC3)cc1OC [Compound 310],Condition 2 Conversion (%),[11]; time 1 min,0%
same,Condition 2 Conversion (%),[11]; time 5 min,0%
same,Condition 2 Conversion (%),[11]; time 30 min,0%
same,Condition 2 Conversion (%),[11]; time 1 h,0%
same,Condition 2 Conversion (%),[11]; time 4 h,0%
same,Condition 2 Conversion (%),[11]; time 24 h,0%
same,Mouse Plasma Prodrug (%),[6]; 0.0 min,100.0%
same,Mouse Plasma Prodrug (%),[6]; 15 min,0.4%
same,Mouse Plasma Prodrug (%),[6]; 30 min,0.1%
same,Mouse Plasma Prodrug (%),[6]; 60 min,0.1%
same,Mouse Plasma Prodrug (%),[6]; 120 min,0.1%
same,Mouse Plasma Prodrug (%),[6]; 240 min,0.1%
same,Human Plasma Prodrug (%),[7],100.0%
same,Condition 1 Conversion (%),"[10]; SGF with pepsin pH 1.5, 37° C., 0.5 mM, time 1 min",0%
same,Condition 1 Conversion (%),"[10]; SGF with pepsin pH 1.5, 37° C., 0.5 mM, time 5 min",0%
same,Condition 1 Conversion (%),"[10]; SGF with pepsin pH 1.5, 37° C., 0.5 mM, time 30 min",0%
same,Condition 1 Conversion (%),"[10]; SGF with pepsin pH 1.5, 37° C., 0.5 mM, time 1 h",0%
same,Condition 1 Conversion (%),"[10]; SGF with pepsin pH 1.5, 37° C., 0.5 mM, time 4 h",0%
same,Condition 1 Conversion (%),"[10]; SGF with pepsin pH 1.5, 37° C., 0.5 mM, time 24 h",0%
"CCC(=O)OC1=C[C@@H]2N(C)CC[C@]2(c2ccc(OC)c(OC)c2)CC1 [Compound 317, [(3aS,7aS)-3a-(3,4-dimethoxyphenyl)-1-methyl-3,4,5,7a-tetrahydro-2H-indol-6-yl] propanoate]",conversion to 001 in vivo,[5]; 2 mg/kg iv in mice,converts to 001 in vivo
same,001 quantifiable in plasma up to,"[5]; male, C57BL/6, mouse, in vivo",60 min
same,plasma levels of 001,"[5]; mouse, in vivo, iv, 2 mg/kg",not detectable
"COc1ccc([C@@]23CCC(OC(=O)CC(C)C)=C[C@@H]2N(C)CC3)cc1OC [Compound 334, [(3aS,7aS)-3a-(3,4-dimethoxyphenyl)-1-methyl-3,4,5,7a-tetrahydro-2H-indol-6-yl] 3-methylbutanoate]",conversion to 001 in vivo,[5]; 2 mg/kg iv in mice,converts to 001 in vivo
same,001 quantifiable in brain up to,"[5]; male, C57BL/6, mouse, in vivo",120 min
same,001 quantifiable in plasma up to,"[5]; male, C57BL/6, mouse, in vivo",60 min
same,plasma levels of 001,"[5]; mouse, in vivo, iv, 2 mg/kg",not detectable
COc1ccc([C@@]23CCC(=O)C[C@@H]2N(C)CC3)cc1OC [mesembrine],stability,[12],unstable
